Experimental data as given in US8093250B2, “2-aminocarbonyl-pyridine derivatives” (Actelion Pharmaceuticals Ltd., priority 2006, dated 2012).

Target: T1, human P2Y12 receptor (Homo sapiens, UniProt Q9H244)
T1 construct: expressed in transfected cells; host or cells: Chinese Hamster Ovary (CHO) cells
Assay: P2Y12 receptor binding assay
Conditions: CHO cells with recombinant human P2Y12 receptor; tritium-labeled 2-methyl-S-ADP; 2 hours at RT
Protocol: Chinese Hamster Ovary (CHO) cells with recombinant expression of the human P2Y12 receptor were cultured in 24 well cell-culture plates. Cells were washed three times with binding buffer (50 mM Tris pH 7.4, 100 mM NaCl, 1 mM EDTA, 0.5% BSA). The cells were then incubated with 0.5 ml per well binding buffer containing tritium-labeled 2-methyl-thio-adenosine 5′-diphosphate (2-methyl-S-ADP) (between 100'000 and 300'000 dpm per well) and various concentrations of test compounds. After incubation at RT for 2 hours, cells were washed three times with binding buffer. Then, cells were solubilized by addition of 0.5 ml solubilization buffer (SDS, NaOH, EDTA). The content of each well was then transferred into beta-counter vials and 2.0 ml of Ultima Gold Scintillation liquid was added.

T1 sequence (Q9H244 whole entry): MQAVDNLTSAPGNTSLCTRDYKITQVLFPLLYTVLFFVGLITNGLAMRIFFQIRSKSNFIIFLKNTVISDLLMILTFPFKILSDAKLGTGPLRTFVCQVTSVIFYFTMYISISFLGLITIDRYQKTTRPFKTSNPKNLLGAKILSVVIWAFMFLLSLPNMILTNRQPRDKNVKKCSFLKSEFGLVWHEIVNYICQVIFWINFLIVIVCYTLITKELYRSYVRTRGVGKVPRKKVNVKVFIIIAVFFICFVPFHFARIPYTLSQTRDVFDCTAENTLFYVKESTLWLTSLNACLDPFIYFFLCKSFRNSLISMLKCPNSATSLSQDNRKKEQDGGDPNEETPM

Row | IC50 [µM] | Structure (SMILES)
1 | 0.386 | CCCCNc1cc(C(=O)N[C@@H](CCC(=O)O)C(=O)N2CCN(C(=O)OCC)CC2)nc(-c2ccccc2)c1F [Example 75, 4-{(S)-2-[(4-butylamino-5-fluoro-6-phenyl-pyridine-2-carbonyl)-amino]-4-carboxy-butyryl}-piperazine-1-carboxylic acid ethyl ester]
2 | 0.51 | CCOC(=O)N1CCN(C(=O)[C@H](CCC(=O)O)NC(=O)c2nc(-c3ccccc3)cc(C3CC3)c2OC)CC1 [Example 71, 4-{(S)-4-carboxy-2-[(4-cyclopropyl-3-methoxy-6-phenyl-pyridine-2-carbonyl)-amino]-butyryl}-piperazine-1-carboxylic acid ethyl ester]
3 | 0.094 | CCOC(=O)N1CCN(C(=O)[C@H](CCC(=O)O)NC(=O)c2cc(OC3CCOC3)cc(-c3ccccc3)n2)CC1 (stereo partly drawn) [Example 37, 4-((S)-4-carboxy-2-{[6-phenyl-4-(tetrahydro-furan-3-yloxy)-pyridine-2-carbonyl]-amino}-butyryl)-piperazine-1-carboxylic acid ethyl ester]
4 | 0.109 | CCCCOC(=O)N1CCN(C(=O)[C@@H](NC(=O)c2cc(N3CC[C@H](OC)C3)cc(-c3ccccc3)n2)C(C)C)CC1 [Example 69, 4-((S)-2-{[4-((S)-3-methoxy-pyrrolidin-1-yl)-6-phenyl-pyridine-2-carbonyl]-amino}-3-methyl-butyryl)-piperazine-1-carboxylic acid butyl ester]
5 | 0.04 | CCOC(=O)N1CCN(C(=O)[C@H](Cc2nn[nH]n2)NC(=O)c2cc(-c3ccccc3)cc(-c3ccccc3)n2)CC1 [Example 66, 4-[(S)-2-[(4,6-diphenyl-pyridine-2-carbonyl)-amino]-3-(2H-tetrazol-5-yl)-propionyl]-piperazine-1-carboxylic acid ethyl ester]
6 | 0.204 | CCOC(=O)N1CCN(C(=O)[C@H](CO)NC(=O)c2cc(-c3ccccc3)cc(-c3ccccc3)n2)CC1 [Example 24, 4-{(S)-2-[(4,6-diphenyl-pyridine-2-carbonyl)-amino]-3-hydroxy-propionyl}-piperazine-1-carboxylic acid ethyl ester]

The next lines start with the molecule.

Row | Structure (SMILES) | IC50 [µM]
7 | CCOC(=O)N1CCN(C(=O)[C@H](CCC(=O)O)NC(=O)c2cc(-c3ccsc3)cc(-c3ccccc3)n2)CC1 [Example 32, 4-{(S)-4-carboxy-2-[(6-phenyl-4-thiophen-3-yl-pyridine-2-carbonyl)-amino]-butyryl}-piperazine-1-carboxylic acid ethyl ester] | 0.067
8 | CCOC(=O)N1CCN(C(=O)[C@H](CCC(=O)OC(C)(C)C)NC(=O)c2cc(Cl)cc(-c3ccccc3)n2)CC1 [Example 39, 4-{(S)-4-O-tert-butoxycarbonyl-2-[(4-chloro-6-phenyl-pyridine-2-carbonyl)-amino]-butyryl}-piperazine-1-carboxylic acid ethyl ester] | 2.15
9 | CCOC(=O)N1CCN(C(=O)[C@H](CCC(=O)O)NC(=O)c2cc(Cl)cc(-c3ccccc3)n2)CC1 [Example 1, 4-{(S)-4-carboxy-2-[(4-chloro-6-phenyl-pyridine-2-carbonyl)-amino]-butyryl}-piperazine-1-carboxylic acid ethyl ester] | 0.034
10 | CCCCOC(=O)N1CCN(C(=O)[C@H](CCC(=O)OC(C)(C)C)NC(=O)c2cc(N3CC[C@H](OC)C3)cc(-c3ccccc3)n2)CC1 [Example 72, 4-((S)-4-tert-butoxycarbonyl-2-{[4-((S)-3-methoxy-pyrrolidin-1-yl)-6-phenyl-pyridine-2-carbonyl]-amino}-butyryl)-piperazine-1-carboxylic acid butyl ester] | 1.76
11 | CCOC(=O)N1CCN(C(=O)[C@H](CCC(=O)O)NC(=O)c2cc(CCC(C)(C)O)cc(-c3ccccc3)n2)CC1 [Example 28, 4-((S)-4-carboxy-2-{[4-(3-hydroxy-3-methyl-butyl)-6-phenyl-pyridine-2-carbonyl]-amino}-butyryl)-piperazine-1-carboxylic acid ethyl ester] | 0.096
